Laboratory results taken from article PMC11678373 (Pharmaceutics, 2024).
Values joined by “and” are separate entries in the source; they are usually repeats but may differ in a detail not shown here. Identical values can stand only once. Like-named read-outs stand apart in the source and are kept apart here. Each block holds one compound with its values, some of them ahead of it.

How the values were obtained:
[1] = design: method as in Jin et al. 37; conditions: ref Jin et al. 37, cited from earlier work; for predicted AUC increase for (S)- and/or (R)-warfarin: via CYP inhibition
[2] = cited from earlier work
CYP3A = tested on: CYP3A; design: method as in Jin et al. 37; conditions: competitive inhibition; ref Jin et al. 37; cited from earlier work
[3] = co-administration of OLA and metformin in rats; cited from earlier work
[4] = Pharmacokinetics of REG, M-2 and M-5 in rats after single oral REG with or without OLA; assay type: in vivo, male Wistar rats
Protocol: (§1) Healthy, 14-week-old adult male Wistar rats purchased from the Anima Sp. z o. o. SK and ViVARI s.c. (Warszawa, Poland) were used in the study. The animals were housed for one week in a temperature- and humidity-controlled room with a 12-h light/dark cycle and fed a standard diet with free access to fresh water.
(§2) This reduced the number of animals included in the experiment, which is consistent with the 3R concept. The same drugs (same manufacturer, same dose) were administered in the study group IREG+OLA, but from different batches than in the control groups. No other experimental conditions were changed.
(§3) The samples were centrifuged (2880 g, 10 min at 4 °C), and the plasma was stored at −80 °C until analyzed.
A Cortecs UPLC C18 column (2.1 × 50 mm, 1.6 μm) was used in combination with a VanGuard Acquity UPLC BEH C18 pre-column (2.1 × 5 mm, 3/Pk, Waters Corporation). The injection volume was 5 μL, the autosampler temperature was 4 °C, and the column temperature was 40 °C. The composition of mobile phase A was 0.1% aqueous formic acid solution (v/v), and phase B was acetonitrile/methanol and 0.1% aqueous formic acid solution in a ratio of 1:3 (v/v). The total run time was 5 min. The gradient was as follows: 0–0.5 min with 10% B; 0.5–3 min, 95% B; 3–4 min, 95% B; 4–4.1 min, 10% B; 4.1–5 min, 10% B. The flow rate was 0.4 mL/min. Multiple reaction monitoring (MRM) experiments using positive electrospray ionization (ESI) were performed to analyze the samples.
The following settings of the Xevo TQ-S micro mass spectrometer were used: source temperature 150 °C, desolvation temperature 600 °C, nitrogen gas flow 900 L/h, capillary voltage 3.6 kV.
(§4) The values of the pharmacokinetic parameters of OLA, REG, and M-2 and M-5 were determined by non-compartmental analysis with linear interpolation. PKanalix 2023R1 software (Lixoft, Antony, France) was used to calculate the elimination rate constant (kel), the absorption rate constant (ka), the half-life in the elimination phase (t1/2), the area under the concentration–time curve from zero to the last measurable concentration (AUC0–t), the area under the plasma concentration–time curve from zero to infinity (AUC0–∞), the apparent plasma drug clearance (Cl/F), and the apparent volume of distribution (Vd/F). The maximum plasma concentration (Cmax) and the time to reach the Cmax (tmax) were obtained directly from the measured values. All these parameters were presented as arithmetic mean ± standard deviation (SD) and subjected to statistical analysis.

[5] = Long-term stability in plasma (bioanalytical validation); assay type: physicochemical, rat; conditions: plasma QC samples, −20 °C storage
Protocol: The concentrations were diluted in five replicates.
Short-term and long-term stability were tested at −20 °C storage conditions and ambient temperature at processing conditions. For the short term, three cycles of freezing and thawing within three days were applied.
All met ICH acceptance criteria.

[6] = single oral REG 20 mg/kg b.w. alone (IIREG control, n = 8), mean ± SD, adapted from previous project ref 39, cited from earlier work; for AUC0–t / AUC0–∞: metabolite in plasma
CYP2C8 = conditions: cited from earlier work
CYP2C9 = conditions: cited from earlier work
CYP3A4 = conditions: cited from earlier work
CYP2D6 = conditions: cited from earlier work
[7] = cited from earlier work; remark: listed apart in the source
P-glycoprotein = conditions: cited from earlier work
CYP2B6 = conditions: cited from earlier work
CYP2C19 = conditions: cited from earlier work
[8] = Pharmacokinetics of OLA in rats after single oral OLA with or without REG; assay type: in vivo, male Wistar rats
Protocol: as §1, §2, §3
OLA in animal plasma samples was quantified using an Acquity 1-class PLUS ultra-high performance liquid chromatograph coupled to a Xevo TQ-S micro triple quadrupole mass spectrometer (Waters Corporation, 34 Maple Street, Milford, MA, USA). A Cortecs UPLC C18 column (2.1 × 50 mm, 1.6 µm, Waters Corporation, 34 Maple Street, Milford, MA, USA) was used for the chromatographic separation. The column temperature and injection volume were set at 40 °C and 1 µL, respectively. The mobile phase consisted of acetonitrile (eluent A) and 2 mM ammonium acetate in water (eluent B) with 0.1% 98–100% formic acid. The flow rate was kept at 0.3 mL/min. The elution gradient was as follows: 0–3 min, 5% A; 4–5 min, 95% A; 3–5 min, linear from 5% to 95% A; 5–6 min, linear from 95% to 5% A. The mass spectrometer was operated in multiple reaction monitoring mode. Two transitions were monitored for OLA and OLA-d4 as an internal standard (IS): m/z 435.1→367.1 and 435.1→281.0 (qualifier transition) for OLA and m/z 439.1→367.1 and 439.1→281.0 for IS.
as §4

[9] = OLA; single oral OLA 100 mg/kg b.w. alone (IIIOLA control, n = 8); mean ± SD; adapted from previous project ref 40; cited from earlier work
P-gp = tested on: P-gp; design: method as in earlier work; conditions: cited from earlier work
BCRP = tested on: BCRP; design: method as in earlier work; conditions: cited from earlier work
CYP3A4/5 = tested on: CYP3A4/5; design: method as in PMID 28657402, PMID 27684210; conditions: cited from earlier work
P-gp vesicles = tested on: P-gp vesicles; design: method as in Deng et al. 36; conditions: ref Deng et al. 36; cited from earlier work

Compound: CC(=O)Nc1cccc(-n2c(=O)n(C3CC3)c(=O)c3c(Nc4ccc(I)cc4F)n(C)c(=O)c(C)c32)c1 [trametinib]
predicted AUC increase for (S)- and/or (R)-warfarin [1]: ≤ 1.2 fold

Compound: OC(Cn1cncn1)(Cn1cncn1)c1ccc(F)cc1F [fluconazole]
increase in AUC of OLA ([2]; concomitant fluconazole): 121%
increase in Cmax of OLA ([2]; concomitant fluconazole): 14%

Compound: CNC(=O)c1ccccc1Sc1ccc2c(/C=C/c3ccccn3)n[nH]c2c1 [axitinib]
predicted AUC increase for (S)- and/or (R)-warfarin [1]: ≤ 1.2 fold

Compound: Cc1cc(Nc2cc(N3CCN(C)CC3)nc(Sc3ccc(NC(=O)C4CC4)cc3)n2)[nH]n1 [tozasertib]
predicted AUC increase for (S)- and/or (R)-warfarin [1]: ≤ 1.2 fold

Compound: Cc1ccc(NC(=O)c2ccc(CN3CCN(C)CC3)cc2)cc1Nc1nc(-c2cccnc2)cs1 [masitinib]
Ki (CYP3A): 1300 nM

Compound: CCC(C)n1ncn(-c2ccc(N3CCN(c4ccc(OCC5COC(Cn6cncn6)(c6ccc(Cl)cc6Cl)O5)cc4)CC3)cc2)c1=O (stereo not drawn) [itraconazole]
increase in AUC of OLA ([2]; concomitant itraconazole): 170%
increase in Cmax of OLA ([2]; concomitant itraconazole): 42%

Compound: CN(C)C(=N)N=C(N)N [metformin]
increase in metformin AUC [3]: 2.6 fold
increase in metformin Cmax [3]: 2.8 fold

Compound: Clc1ccc(Nc2nnc(Cc3ccncc3)c3ccccc23)cc1 [vatalanib]
Ki (CYP3A): 200 nM

Compound: COC(=O)c1ccc2c(c1)NC(=O)/C2=C(\Nc1ccc(N(C)C(=O)CN2CCN(C)CC2)cc1)c1ccccc1 [nintedanib]
predicted AUC increase for (S)- and/or (R)-warfarin [1]: ≤ 1.2 fold

AUC0–t of metabolite, times higher during combined administration of OLA and REG ([4]; IREG+OLA vs. IIREG control): 17.83 fold
AUC0–∞ of metabolite, times higher during combined administration of OLA and REG ([4]; IREG+OLA vs. IIREG control): 18.82 fold
Cmax of metabolite, times higher during combined administration of OLA and REG ([4]; IREG+OLA vs. IIREG control): 16.32 fold
stable in plasma (long-term test) [5]: ≥ 180 days
Compound: NC(=O)c1cc(Oc2ccc(NC(=O)Nc3ccc(Cl)c(C(F)(F)F)c3)c(F)c2)cc[n+]1[O-] [M-5, N-desmethyl-REG-N-oxide]
AUC0–t [6]: 803.19 ± 177.02 (22.0) ng × h/mL
AUC0–∞ [6]: 847.88 ± 178.97 (21.1) ng × h/mL
R1 value (CYP2C8): > 1.1

AUC0–t of metabolite, times higher during combined administration of OLA and REG ([4]; IREG+OLA vs. IIREG control): 8.86 fold
Cmax of metabolite, times higher during combined administration of OLA and REG ([4]; IREG+OLA vs. IIREG control): 7.22 fold
stable in plasma (long-term test) [5]: ≥ 180 days
Compound: CNC(=O)c1cc(Oc2ccc(NC(=O)Nc3ccc(Cl)c(C(F)(F)F)c3)c(F)c2)cc[n+]1[O-] [M-2, REG-N-oxide]
AUC0–t [6]: 9615.36 ± 2275.41 (23.7) ng × h/mL
AUC0–∞ [6]: 11,469.93 ± 2133.05 (18.6) ng × h/mL
R1 value (CYP2C8): > 1.1
R1 value (CYP2C9): > 1.1
R1 value (CYP3A4): > 1.1
R1 value (CYP2D6): > 1.1

increase of AUC0–∞ of REG after OLA administration ([4]; IREG+OLA vs. IIREG control): 3.38 fold
increase of t0.5 of REG after OLA administration ([4]; IREG+OLA vs. IIREG control): 1.82 fold
increase of tmax of REG after OLA administration ([4]; IREG+OLA vs. IIREG control): 2.66 fold
reduction of kel of REG in the study group ([4]; IREG+OLA vs. IIREG control): 1.77 fold
t0.5 ([4]; REG, single oral REG 20 mg/kg b.w. + OLA 100 mg/kg b.w. (IREG+OLA, n = 8), mean ± SD): 11.65 ± 3.70 (31.7) h
stable in plasma (long-term test) [5]: ≥ 180 days
Compound: CNC(=O)c1cc(Oc2ccc(NC(=O)Nc3ccc(Cl)c(C(F)(F)F)c3)c(F)c2)ccn1 [REG, regorafenib]
Vd/F ([6]; REG): 2062.53 ± 615.85 (29.7) mL
tmax ([6]; REG): 5.8 ± 2.1 (36.9) h
estimated duodenal concentration ([7]; 160 mg REG dose, assumed duodenal volume of 250 mL): 1.3 mM
IC50 (P-glycoprotein; in vitro, read-out: IC50): ~2000 nM
IC50 (P-glycoprotein; read-out: IC50 for P-gp inhibition): 2200 nM
Ki (CYP3A): 20700 nM
predicted effect on the AUCs of apixaban and rivaroxaban [1]: little or no effect
R1 value (CYP2C8): > 1.1
R1 value (CYP2B6): > 1.1
R1 value (CYP2C9): > 1.1
R1 value (CYP2C19): > 1.1
R1 value (CYP3A4): > 1.1

inhibitor class as perpetrator towards REG, from AUC ratio ([4]; rat model, AUC ratio 3.39): moderate inhibitor
increase of AUC0–t of OLA after administration of OLA with REG ([8]; IREG+OLA vs. IIIOLA control): 3.4 fold
increase of AUC0–t of OLA by REG ([8]; IREG+OLA vs. IIIOLA control): 241.7%
increase of AUC0–∞ of OLA after administration of OLA with REG ([8]; IREG+OLA vs. IIIOLA control): 3.4 fold
increase of AUC0–∞ of OLA by REG ([8]; IREG+OLA vs. IIIOLA control): 240.6%
increase of Cmax of OLA after administration of OLA with REG ([8]; IREG+OLA vs. IIIOLA control): 2.0 fold
increase of Cmax of OLA by REG ([8]; IREG+OLA vs. IIIOLA control): 104.9%
t0.5 ([8]; OLA, single oral OLA 100 mg/kg b.w. + REG 20 mg/kg b.w. (IREG+OLA, n = 8), mean ± SD): 3.01 ± 0.86 (28.6) h
AUC0–∞ ratio of OLA (study group/control group) ([8]; rats, OLA victim, REG perpetrator): 3.39 and 3.41
stable in plasma (long-term test) [5]: at least 181 days
Compound: O=C(c1cc(Cc2n[nH]c(=O)c3ccccc23)ccc1F)N1CCN(C(=O)C2CC2)CC1 [OLA, Olaparib]
AUC0–t [9]: 28.28 ± 28.16 (99.6) µg × h/mL
AUC0–∞ [9]: 28.58 ± 28.31 (99.1) µg × h/mL
Cl/F [9]: 7.84 ± 15.21 (193.9) L/h
Cmax [9]: 8.72 ± 6.80 (78.0) µg/mL
t0.5 [9]: 4.79 ± 6.06 (126.5) h
tmax [9]: 1.16 ± 0.92 (78.9) h
IC50 (P-gp): > 10000 nM
IC50 (BCRP): > 10000 nM
time-dependent CYP inhibition (CYP3A4/5; OLA 10 μM): little effect
time-dependent CYP inhibition (CYP3A4/5; OLA 2–200 μM): time-dependent CYP3A4/5 inhibitor
IC50 (CYP3A4/5; reversible inhibition, OLA 17–500 μM): 119000 nM
concentration in the gastrointestinal tract ([7]; from a 400 mg dose): 3683 µM
inhibition of atorvastatin transport (P-gp vesicles): weak inhibitor
